For 39 molecules, mortality results are on record in US8642597B2, “Pyrazole compounds for controlling invertebrate pests” (BASF SE, priority 2007, dated 2014).

Assay type in all cases: in vivo
Experiment [1] concerns Boll Weevil (Anthonomus grandis). The experiment in a line: Boll weevil (Anthonomus grandis), insect diet microtiter plate test. Conditions: 120 h, concentration of the test solution 2500 mg/L, egg and larval mortality after 5 days. On the procedure: The compounds were formulated in 75:25 (vol:vol) water:DMSO.
For evaluating control of boll weevil (Anthonomus grandis) the test unit consisted of 24-well-microtiter plates containing an insect diet and 20-30 A. grandis eggs. Different concentrations of formulated compounds were sprayed onto the insect diet at 20 μl, using a custom built micro atomizer, at two replications. After application, the microtiter plates were incubated at 23±1° C. and 50±5% relative humidity for 5 days. Egg and larval mortality was then visually assessed.

The test system of experiment [2] is Green Peach Aphid (Myzus persicae, Mixed Life Stages). The experiment in a line: Green peach aphid (Myzus persicae, mixed life stages), pepper leaf dip test. Conditions: foliar, 120 h, after 5 days, in comparison with untreated controls. From the text: (§1) The active compounds were formulated in 50:50 (vol:vol) acetone:water and 100 ppm Kinetica™ surfactant.
Pepper plants in the 2nd leaf-pair stage (variety ‘California Wonder’) were infested with approximately 40 laboratory-reared aphids by placing infested leaf sections on top of the test plants. The leaf sections were removed after 24 hr. The leaves of the intact plants were dipped into gradient solutions of the test compound and allowed to dry. Test plants were maintained under fluorescent light (24 hour photoperiod) at about 25° C. and 20-40% relative humidity. Aphid mortality on the treated plants, relative to mortality on check plants, was determined after 5 days.

The test system of experiment [3] is Cowpea Aphid (aphis craccivora). The experiment in a line: Cowpea aphid (aphis craccivora), spray on potted cowpea plants. The settings on record: population reduction assessed after 24, 72 and 120 hours, in comparison with untreated controls. As to the method: The active compounds were formulated in 50:50 (vol:vol) acetone:water. The test solution was prepared at the day of use.
Potted cowpea plants colonized with 100-150 aphids of various stages were sprayed after the pest population had been recorded. Population reduction was assessed after 24, 72, and 120 hours.

Experiment [4] deals with Cotton Aphid (aphis gossypii, Mixed Life Stages). Description: Cotton aphid (aphis gossypii, mixed life stages), cotyledon dip test. The settings on record: 120 h, mortality counts after 5 days, in comparison with untreated controls.
From the text: as §1
Cotton plants at the cotyledon stage (one plant per pot) were infested by placing a heavily infested leaf from the main colony on top of each cotyledon. The aphids were allowed to transfer to the host plant overnight, and the leaf used to transfer the aphids was removed. The cotyledons were dipped in the test solution and allowed to dry. After 5 days, mortality counts were made.

Experiment [5] deals with Vetch Aphid (Megoura viciae). The experiment in a line: Vetch aphid (Megoura viciae), bean leaf disk microtiterplate test. Conditions: foliar, 144 h, concentration of the test solution 2500 mg/L, 6 days. On the procedure:
The active compounds were formulated in 1:3 (vol:vol) DMSO:water with different concentrations of formulated compounds.
Bean leaf disks were placed into microtiterplates filled with 0.8% agar-agar and 2.5 ppm OPUS™. The leaf disks were sprayed with 2.5 μl of the test solution and 5 to 8 adult aphids were placed into the microtiterplates which were then closed and kept at 23±1° C. and 50±5% relative humidity under fluorescent light for 6 days. Mortality was assessed on the basis of vital, reproduced aphids. Aphid mortality and fecundity was then visually assessed.

A value given as a limit tells only on which side of the number the result lay.

In the case of `O=C(Nc1cccnc1)c1cn(C(F)F)nc1C(F)(F)F` [Compound 192], in experiment [1], the mortality (as a rule, the share of the test organisms that died) at 2500 µg/mL is 100%. For the same molecule, the mortality at 300 ppm in experiment [2] is no less than 50%; in experiment [3], no less than 75%; in experiment [4], no less than 75%.

Turning to `Cc1c(C(=O)Nc2cccnc2)cnn1C(F)F` [Compound 208], the mortality at 300 ppm was no less than 50% in experiment [2], no less than 75% in experiment [3] and no less than 75% in experiment [4].

In the case of `CCc1c(C(=O)Nc2cccnc2)cnn1-c1ccc([N+](=O)[O-])cc1` [Compound 144], the mortality at 300 ppm is no less than 50% in experiment [2], no less than 75% in experiment [3] and no less than 75% in experiment [4]. In experiment [5], this molecule yielded a mortality at 2500 µg/mL of no less than 80%.

As for `O=C(Nc1cccnc1)c1cnn(-c2ccc(F)cc2)c1` [Compound 113], in experiment [3], the mortality at 300 ppm is no less than 75%.

As for `CC(C)N(C(=O)c1cn(C)nc1C(F)(F)F)c1cccnc1` [Compound 130], the mortality at 300 ppm was no less than 50% in experiment [2] and no less than 75% in experiment [4]. In experiment [5], the mortality at 2500 µg/mL is no less than 80%.

For `CCn1ncc(C(=O)Nc2cccnc2)c1C` [Compound 72], the mortality at 300 ppm in experiment [3] and in experiment [4] was no less than 75% in each case. The mortality at 2500 µg/mL in experiment [5] was no less than 80%.

In the case of `COc1ccc(-n2ncc(C(=O)Nc3cccnc3)c2C(F)(F)F)cc1` [Compound 226], the mortality at 300 ppm in experiment [2] was no less than 50%; in experiment [4], no less than 75%. For the same molecule, the mortality at 2500 µg/mL in experiment [5] was no less than 80%.

As to `O=C(Nc1cccnc1)c1cnn(-c2ccccn2)c1` [Compound 105], in experiment [1], the mortality at 2500 µg/mL was found to be 100%. Moreover, the mortality at 300 ppm was no less than 50% in experiment [2] and no less than 75% in experiment [4].

As for `Cc1c(C(=O)Nc2cccnc2)cnn1-c1ccc(F)cc1` [Compound 165], the values for the mortality at 300 ppm in experiment [2], in experiment [3] and in experiment [4] were no less than 50%, no less than 75% and no less than 75%, respectively. In experiment [5], this molecule came in with a mortality at 2500 µg/mL of no less than 80%.

`CC(C)c1c(C(=O)Nc2cccnc2)cnn1C` [Compound 90] came in with a mortality at 300 ppm in experiment [3] of no less than 75%.

On to `Cn1ncc(C(=O)Nc2cccnc2)c1-c1ccccc1` [Compound 71], for which the figures for the mortality at 300 ppm in experiment [2] and in experiment [4] were no less than 50% and no less than 75%, respectively. In experiment [5], the mortality at 2500 µg/mL is no less than 80%.

Turning to `Cc1c(C(=O)N(C)c2cccnc2)cnn1C` [Compound 178], the mortality at 300 ppm in experiment [2] was no less than 50%; in experiment [3], no less than 75%; in experiment [4] it was no less than 75%.

`O=C(Nc1cccnc1)c1cnn(-c2ccc(Cl)cc2)c1C(F)F` [Compound 86] showed a mortality at 2500 µg/mL in experiment [1] of 100%. Also, the mortality at 300 ppm in experiment [2] was no less than 50%; in experiment [3], no less than 75%; in experiment [4], no less than 75%.

Regarding `CC(C)c1c(C(=O)Nc2cccnc2)cnn1-c1ccccc1` [Compound 120], the values for the mortality at 300 ppm in experiment [2], in experiment [3] and in experiment [4] were no less than 50%, no less than 75% and no less than 75%, respectively. The same molecule came in with a mortality at 2500 µg/mL in experiment [5] of no less than 80%.

`CCCCCCCn1cc(C(=O)Nc2cccnc2)cn1` [Compound 140] showed a mortality at 300 ppm in experiment [2] of no less than 50%. For the same molecule, the mortality at 2500 µg/mL in experiment [5] was no less than 80%.

Take `C#CCN(C(=O)c1cn(C)nc1C(F)(F)F)c1cccnc1` [Compound 141]: the mortality at 300 ppm was no less than 50% in experiment [2], no less than 75% in experiment [3] and no less than 75% in experiment [4]. The molecule further yielded a mortality at 2500 µg/mL in experiment [5] of no less than 80%.

Consider `Cn1ccc(C(=O)Nc2cccnc2)n1` [Compound 1], for which the results for the mortality at 300 ppm in experiment [2], in experiment [3] and in experiment [4] were no less than 50%, no less than 75% and no less than 75%, respectively.

For the molecule `CCn1cc(C(=O)N(C)c2cccnc2)cn1` [Compound 187], the mortality at 300 ppm in experiment [2] is no less than 50%; in experiment [3] it was no less than 75%; in experiment [4], no less than 75%.

As to `CN(C(=O)c1cnn(C(F)F)c1)c1cccnc1` [Compound 222], the values for the mortality at 300 ppm in experiment [2], in experiment [3] and in experiment [4] were no less than 50%, no less than 75% and no less than 75%, respectively.

As to `O=C(Nc1cccnc1)c1cnn(-c2ccccc2)c1` [Compound 106], the mortality at 2500 µg/mL in experiment [1] is 100%. For the same molecule, in experiment [3], the mortality at 300 ppm is no less than 75%.

Turning to `CCn1cc(C(=O)N(C)c2cccnc2)c(C(F)F)n1` [Compound 182], the mortality at 300 ppm in experiment [2] is no less than 50%; in experiment [3] it was no less than 75%; in experiment [4] it was no less than 75%. The same molecule gave a mortality at 2500 µg/mL in experiment [5] of no less than 80%.

`O=C(Nc1cccnc1)c1cnn(C2CC2)c1` [Compound 119]: the mortality at 300 ppm in experiment [2] is no less than 50%; in experiment [3], no less than 75%; in experiment [4] it was no less than 75%. For the same molecule, the mortality at 2500 µg/mL in experiment [5] was no less than 80%.

`CO/N=C(/Nc1cccnc1)c1cn(C)nc1C(F)(F)F` [Compound 242]: the mortality at 300 ppm in experiment [2] is no less than 50%; in experiment [3] it was no less than 75%; in experiment [4] it was no less than 75%. This molecule also displayed a mortality at 2500 µg/mL in experiment [5] of no less than 80%.

Regarding `CN(C(=O)c1cnn(C)c1)c1cccnc1` [Compound 177], the figures for the mortality at 300 ppm in experiment [2], in experiment [3] and in experiment [4] were no less than 50%, no less than 75% and no less than 75%, respectively.

As for `O=C(Nc1cccnc1)c1cnn(-c2c(F)cccc2F)c1C(F)F` [Compound 162], the mortality at 2500 µg/mL was 100% in experiment [1] and no less than 80% in experiment [5].

Turning to `O=C(Nc1cccnc1)c1cnn(C(F)(F)F)c1` [Compound 205], the mortality at 300 ppm in experiment [2] was no less than 50%; in experiment [3], no less than 75%; in experiment [4], no less than 75%. For the same molecule, the mortality at 2500 µg/mL in experiment [5] is no less than 80%.

Regarding `CC(C)n1cc(C(=O)Nc2cccnc2)cn1` [Compound 200], the mortality at 300 ppm in experiment [2] was no less than 50%; in experiment [3], no less than 75%; in experiment [4], no less than 75%.

In experiment [1], `O=C(Nc1cccnc1)c1cn(-c2ccc([N+](=O)[O-])cc2)nc1C(F)F` [Compound 171] displayed a mortality at 2500 µg/mL of 100%.

`N#CN(C(=O)c1cnn(C(F)F)c1C(F)F)c1cccnc1` [Compound 210]: the mortality at 300 ppm in experiment [2] was no less than 50%; in experiment [3], no less than 75%; in experiment [4], no less than 75%. In addition, the mortality at 2500 µg/mL in experiment [5] was no less than 80%.

`Cc1nn(C)cc1C(=O)Nc1cccnc1` [Compound 70]: the mortality at 300 ppm in experiment [2] was no less than 50%; in experiment [3], no less than 75%; in experiment [4], no less than 75%.

`CCCN(C(=O)c1cn(C)nc1C(F)(F)F)c1cccnc1` [Compound 202]: the mortality at 300 ppm in experiment [2] is no less than 50%; in experiment [3], no less than 75%; in experiment [4] it was no less than 75%. Besides, the mortality at 2500 µg/mL in experiment [5] is no less than 80%.

In the case of `O=C(Nc1cccnc1)c1cnn(Cc2ccc(Cl)cc2)c1` [Compound 81], in experiment [1], the mortality at 2500 µg/mL is 100%. For the same molecule, the mortality at 300 ppm in experiment [2] was no less than 50%; in experiment [3] it was no less than 75%.

In turn, `CC(C)n1cc(C(=O)Nc2cccnc2)cn1` [Compound 97] had a mortality at 2500 µg/mL in experiment [5] of no less than 80%.

With `Cc1cc(C(=O)Nc2cccnc2)n(C)n1` [Compound 3], the mortality at 300 ppm in experiment [2] was no less than 50%; in experiment [3], no less than 75%; in experiment [4], no less than 75%. The mortality at 2500 µg/mL in experiment [5] is no less than 80%.

For `O=C(Nc1cccnc1)c1cnn(-c2cccc([N+](=O)[O-])c2)c1C(F)F` [Compound 153], the mortality at 2500 µg/mL was 100% in experiment [1] and no less than 80% in experiment [5].

`O=C(Nc1cccnc1)c1cnn(C(F)F)c1C(F)F` [Compound 188]: in experiment [1], the mortality at 2500 µg/mL is 100%. In addition, the values for the mortality at 300 ppm in experiment [2], in experiment [3] and in experiment [4] were no less than 50%, no less than 75% and no less than 75%, respectively.

Turning to `Cc1cc(C(=O)Nc2cccnc2)nn1C` [Compound 10], the mortality at 300 ppm in experiment [2] was no less than 50%; in experiment [3], no less than 75%; in experiment [4], no less than 75%.

Consider `O=C(Nc1cccnc1)c1cnn(-c2ccc(F)cc2)c1I` [Compound 124], for which the mortality at 300 ppm was no less than 50% in experiment [2], no less than 75% in experiment [3] and no less than 75% in experiment [4]. The same molecule came in with a mortality at 2500 µg/mL in experiment [5] of no less than 80%.

As to `Cc1ccc(S(=O)(=O)N(C(=O)c2cn(C)nc2C(F)(F)F)c2cccnc2)cc1` [Compound 136], the mortality at 300 ppm in experiment [2] was no less than 50%; in experiment [3] it was no less than 75%; in experiment [4], no less than 75%. In experiment [5], this molecule registered a mortality at 2500 µg/mL of no less than 80%.
